Key:
tumor cells = details: mouse, rat and human liver microsomes; cited from earlier work
[1] = tested on: patients with liver cancer; assay: Hematological toxicity - Platelets, worst CTC Grade by cycle, intrahepatic artery nemorubicin q8wk vs q6wk; type: in vivo, human
Experimental: (§1) The objective of the study was to shorten the time interval between treatment administrations from every 8 weeks (q8wk) of the protocol as reported in WO 00/15203 to every 6 weeks (q6wk). This was done in the attempt of improving the therapeutic potential of nemorubicin treatment through an increase of the dose intensity of the therapy, simultaneously safeguarding patient safety.
(§2) Overall, 13 patients were treated with the q8wk schedule (total 25 cycles administered; doses ranged from 200 to 800 mcg/m^2), and 11 patients were treated with the q6wk schedule (total 32 cycles administered; doses were 200 and 600 mcg/m^2).
(§3) The NCI-Common Tosicity Criteria grading system (CTC Grade), Version 2.0, was used to report toxicities.
(§4) A slight cumulative effect (i.e., increase in frequency but not in severity) was observed after repeated cycles for leucopenia and neutropenia (Tables 2 and 3), mainly with the q8wk schedule.

[2] = tested on: patients with liver cancer; assay: Hematological toxicity - Neutrophils, worst CTC Grade by cycle, intrahepatic artery nemorubicin q8wk vs q6wk; type: in vivo, human
Experimental: as §1, §2, §3, §4

[3] = 200 mcg/m^2 q6wk, All cycles, 11 evaluable cycles
[4] = 200 mcg/m^2 q6wk, Cycle 1, 5 evaluable cycles
[5] = 200 mcg/m^2 q6wk, Cycles > 1, 6 evaluable cycles
[6] = 200 mcg/m^2 q8wk, All cycles, 5 evaluable cycles
[7] = 200 mcg/m^2 q8wk, Cycle 1, 3 evaluable cycles
[8] = 200 mcg/m^2 q8wk, Cycles > 1, 2 evaluable cycles
[9] = 400 mcg/m^2 q8wk, All cycles, 4 evaluable cycles
[10] = 400 mcg/m^2 q8wk, Cycle 1, 3 evaluable cycles
[11] = 600 mcg/m^2 q6wk, All cycles, 18 evaluable cycles
[12] = 600 mcg/m^2 q6wk, Cycle 1, 6 evaluable cycles
[13] = 600 mcg/m^2 q6wk, Cycles > 1, 12 evaluable cycles
[14] = 600 mcg/m^2 q8wk, All cycles, 8 evaluable cycles
[15] = 600 mcg/m^2 q8wk, Cycle 1, 4 evaluable cycles
[16] = 600 mcg/m^2 q8wk, Cycles > 1, 4 evaluable cycles
[17] = 800 mcg/m^2 q8wk, All cycles, 3 evaluable cycles
[18] = 800 mcg/m^2 q8wk, Cycle 1, 3 evaluable cycles
[19] = 800 mcg/m^2 q8wk, All cycles, 4 evaluable cycles

In the case of `COc1cccc2c1C(=O)c1c(O)c3c(c(O)c1C2=O)C[C@@](O)(C(=O)CO)C[C@@H]3O[C@H]1C[C@H](N2CCO[C@H](OC)C2)[C@H](O)[C@H](C)O1.Cl` [nemorubicin, 3′desamino-3′[2(S)methoxy-4-morpholinyl]doxorubicin-hydrochloride], the “cytotoxic activity in vitro in the presence of liver microsomes” value (tumor cells) is listed as “increased”, the “Platelets, worst CTC Grade by cycle: All Grades (%)” value (shortened to “Platelets … All Grades (%)”) [1, 3] is listed as 10 (91%) (%) and the “Platelets, worst CTC Grade by cycle: Grade 1-2 (%)” value (“Platelets … Grade 1-2 (%)” below) [1, 3] is listed as 10 (91%) (%). For the same compound, the “Platelets … All Grades (%)” value [1, 4] was 4 (80%) (%), the “Platelets … Grade 1-2 (%)” value [1, 4] was 4 (80%) (%) and the “Platelets … All Grades (%)” value [1, 5] was 6 (100%) (%). The “Platelets … Grade 1-2 (%)” value [1, 5] was 6 (100%) (%), the “Platelets … All Grades (%)” value [1, 6] was 5 (100%) (%) and the “Platelets … Grade 1-2 (%)” value [1, 6] was 5 (100%) (%). The “Platelets … All Grades (%)” value [1, 7] was 3 (100%) (%), the “Platelets … Grade 1-2 (%)” value [1, 7] was 3 (100%) (%) and the “Platelets … All Grades (%)” value [1, 8] was 2 (100%) (%). The “Platelets … Grade 1-2 (%)” value [1, 8] was 2 (100%) (%), the “Platelets … All Grades (%)” value [1, 9] was 1 (25%) (%) and the “Platelets … Grade 1-2 (%)” value [1, 9] was 1 (25%) (%). For the same compound, the “Platelets … All Grades (%)” value [1, 10] was 1 (33%) (%), the “Platelets … Grade 1-2 (%)” value [1, 10] was 1 (33%) (%) and the “Platelets … All Grades (%)” value [1, 11] was 17 (94%) (%). For the same compound, the “Platelets … Grade 1-2 (%)” value [1, 11] was 17 (94%) (%), the “Platelets … All Grades (%)” value [1, 12] was 6 (100%) (%) and the “Platelets … Grade 1-2 (%)” value [1, 12] was 6 (100%) (%). The “Platelets … All Grades (%)” value [1, 13] was 11 (92%) (%), the “Platelets … Grade 1-2 (%)” value [1, 13] was 11 (92%) (%) and the “Platelets … All Grades (%)” value [1, 14] was 8 (100%) (%). For the same compound, the “Platelets … Grade 1-2 (%)” value [1, 14] was 7 (87%) (%), the “Platelets, worst CTC Grade by cycle: Grade 3 (%)” value [1, 14] was 1 (12%) (%) and the “Platelets … All Grades (%)” value [1, 15] was 4 (100%) (%). For the same compound, the “Platelets … Grade 1-2 (%)” value [1, 15] was 4 (100%) (%), the “Platelets … All Grades (%)” value [1, 16] was 4 (100%) (%) and the “Platelets … Grade 1-2 (%)” value [1, 16] was 3 (75%) (%). For the same compound, the “Platelets, worst CTC Grade by cycle: Grade 3 (%)” value [1, 16] was 1 (25%) (%), the “Platelets … All Grades (%)” value [1, 17] was 2 (67%) (%) and the “Platelets … Grade 1-2 (%)” value [1, 17] was 2 (67%) (%). For the same compound, the “Platelets … All Grades (%)” value [1, 18] was 2 (67%) (%), the “Platelets … Grade 1-2 (%)” value [1, 18] was 2 (67%) (%) and the “thrombocytopenia, maximum severity (CTC Grade)” value ([1]; only one patient treated at 600 mcg/m^2 q8wk after repeated cycles) was “Grade 3”. The “Neutrophils, worst CTC Grade by cycle: All Grades (%)” value (“Neutrophils … All Grades (%)” for short) [2, 3] was 4 (36%) (%), the “Neutrophils, worst CTC Grade by cycle: Grade 1-2 (%)” value (shortened to “Neutrophils … Grade 1-2 (%)”) [2, 3] was 4 (36%) (%) and the “Neutrophils … All Grades (%)” value [2, 4] was 2 (40%) (%). The “Neutrophils … Grade 1-2 (%)” value [2, 4] was 2 (40%) (%), the “Neutrophils … All Grades (%)” value [2, 5] was 2 (33%) (%) and the “Neutrophils … Grade 1-2 (%)” value [2, 5] was 2 (33%) (%). The “Neutrophils … All Grades (%)” value [2, 6] was 3 (60%) (%), the “Neutrophils … Grade 1-2 (%)” value [2, 6] was 3 (60%) (%) and the “Neutrophils … All Grades (%)” value [2, 7] was 1 (33%) (%). For the same compound, the “Neutrophils … Grade 1-2 (%)” value [2, 7] was 1 (33%) (%), the “Neutrophils … All Grades (%)” value [2, 8] was 2 (100%) (%) and the “Neutrophils … Grade 1-2 (%)” value [2, 8] was 2 (100%) (%). The “Neutrophils … All Grades (%)” value [2, 9] was 1 (25%) (%), the “Neutrophils … Grade 1-2 (%)” value [2, 9] was 1 (25%) (%) and the “Neutrophils … All Grades (%)” value [2, 10] was 1 (33%) (%). The “Neutrophils … Grade 1-2 (%)” value [2, 10] was 1 (33%) (%), the “Neutrophils … All Grades (%)” value [2, 11] was 3 (17%) (%) and the “Neutrophils … Grade 1-2 (%)” value [2, 11] was 3 (17%) (%). For the same compound, the “Neutrophils … All Grades (%)” value [2, 12] was 1 (17%) (%), the “Neutrophils … Grade 1-2 (%)” value [2, 12] was 1 (17%) (%) and the “Neutrophils … All Grades (%)” value [2, 13] was 2 (17%) (%). For the same compound, the “Neutrophils … Grade 1-2 (%)” value [2, 13] was 2 (17%) (%), the “Neutrophils … All Grades (%)” value [2, 14] was 2 (25%) (%) and the “Neutrophils … Grade 1-2 (%)” value [2, 14] was 2 (25%) (%). The “Neutrophils … All Grades (%)” value [2, 16] was 2 (50%) (%), the “Neutrophils … Grade 1-2 (%)” value [2, 16] was 2 (50%) (%) and the “Neutrophils … All Grades (%)” value [2, 19] was 1 (25%) (%). For the same compound, the “Neutrophils … Grade 1-2 (%)” value [2, 19] was 1 (25%) (%), the “Neutrophils … All Grades (%)” value [2, 18] was 1 (33%) (%) and the “Neutrophils … Grade 1-2 (%)” value [2, 18] was 1 (33%) (%).

Source: US20060264388A1, “Method for treating liver cancer by intrahepatic administration of nemorubicin” (priority 2003, published 2006)
